Test results as given in US12692238B2, “Substituted pyridazinone herbicides” (FMC CORPORATION, priority 2020, dated 2026).

Key:
Type in all cases: in vivo
[1] = tested on: wheat (Triticum aestivum); assay: Test A preemergence, wheat; settings: 125 g ai/ha, 0 to 100 scale, 10 days
[2] = tested on: goosegrass (Eleusine indica); assay: Test A preemergence, goosegrass; settings: 0 to 100 scale, 10 days
Excerpt: (§1) Seeds of plant species selected from barnyardgrass (Echinochloa crus-galli), blackgrass (Alopecurus myosuroides), corn (Zea mays), foxtail, giant (giant foxtail, Setaria faberi), foxtail, green (green foxtail, Setaria viridis), goosegrass (Eleusine indica), kochia (Bassia scoparia), oat, wild (wild oat, Avena fatua), palmer amaranth (pigweed, palmer, Amaranthus palmeri), redroot pigweed (Amaranthus retroflexus), ragweed (common ragweed, Ambrosia artemisiifolia), ryegrass, Italian (Italian ryegrass, Lolium multiflorum), and soybean (Glycine max) were planted into a blend of loam soil and sand and treated preemergence with a directed soil spray using test chemicals formulated in a non-phytotoxic solvent mixture which included a surfactant.
(§2) At the same time, plants selected from these crop and weed species and also wheat (Triticum aestivum), galium (catchweed bedstraw, Galium aparine) and horseweed (Erigeron canadensis) were planted in pots containing the same blend of loam soil and sand and treated with postemergence applications of test chemicals formulated in the same manner. Plants ranged in height from 2 to 10 cm and were in the one- to two-leaf stage for the postemergence treatment. Treated plants and untreated controls were maintained in a greenhouse for 10 days, after which time all treated plants were compared to untreated controls and visually evaluated for injury. Plant response ratings, summarized in Table A, are based on a 0 to 100 scale where 0 is no effect and 100 is complete control. A dash (-) response means no test result.

[3] = tested on: ryegrass, Italian (Italian ryegrass, Lolium multiflorum); assay: Test A preemergence, ryegrass, Italian; settings: 0 to 100 scale, 10 days
Procedure, shortened: (§3)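 Compounds were sprayed in a non-phytotoxic, surfactant-containing solvent. For preemergence the spray was directed onto freshly seeded loam/sand soil; for postemergence it went onto one- to two-leaf plants. Visual injury, 0–100, was recorded at 10 days.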

kochia (Bassia scoparia) [4] = assay: Test A postemergence, kochia; settings: 10 days
Procedure, shortened: as §3

[5] = tested on: galium (catchweed bedstraw, Galium aparine); assay: Test A postemergence, galium; settings: 10 days
Procedure, shortened: as §3

soybean (Glycine max) [6] = assay: Test A postemergence, soybean; settings: 10 days
Excerpt: as §1, §2

[7] = tested on: blackgrass (Alopecurus myosuroides); assay: Test A postemergence, blackgrass; settings: 10 days
Procedure, shortened: as §3

[8] = tested on: ragweed (common ragweed, Ambrosia artemisiifolia); assay: Test A preemergence, ragweed; settings: 0 to 100 scale, 10 days
Procedure, shortened: as §3

rice (Oryza sativa) = assay: Test B flooded paddy test, rice; settings: 250 g ai/ha, Flood; visually evaluated after 10 to 14 days
Procedure, shortened: (§4)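 Greenhouse paddy assay in which test compounds were dosed into floodwater standing 3 cm above the soil. Plants were at the 2-leaf stage, the water level was kept constant, and effects were rated visually 10–14 days later on a 0–100 scale relative to controls.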

kochia (Bassia scoparia) [9] = assay: Test A preemergence, kochia; settings: 0 to 100 scale, 10 days
Procedure, shortened: as §3

[10] = tested on: oat, wild (wild oat, Avena fatua); assay: Test A preemergence, oat, wild; settings: 0 to 100 scale, 10 days
Excerpt: as §1, §2

[11] = tested on: sedge, umbrella (small-flower umbrella sedge, Cyperus difformis); assay: Test B flooded paddy test, sedge, umbrella; settings: 250 g ai/ha, Flood; visually evaluated after 10 to 14 days
Procedure, shortened: as §4

[12] = tested on: blackgrass (Alopecurus myosuroides); assay: Test A preemergence, blackgrass; settings: 0 to 100 scale, 10 days
Excerpt: as §1, §2

[13] = tested on: horseweed (Erigeron canadensis); assay: Test A postemergence, horseweed; settings: 10 days
Excerpt: as §1, §2

[14] = tested on: barnyardgrass (Echinochloa crus-galli); assay: Test B flooded paddy test, barnyardgrass; settings: 250 g ai/ha, Flood; visually evaluated after 10 to 14 days
Procedure, shortened: as §4

[15] = tested on: foxtail, giant (giant foxtail, Setaria faberi); assay: Test A postemergence, foxtail, giant; settings: 10 days
Procedure, shortened: as §3

[16] = tested on: ryegrass, Italian (Italian ryegrass, Lolium multiflorum); assay: Test A postemergence, ryegrass, Italian; settings: 10 days
Procedure, shortened: as §3

[17] = tested on: ducksalad (Heteranthera limosa); assay: Test B flooded paddy test, ducksalad; settings: 250 g ai/ha, Flood; visually evaluated after 10 to 14 days
Procedure, shortened: as §4

[18] = tested on: foxtail, giant (giant foxtail, Setaria faberi); assay: Test A preemergence, foxtail, giant; settings: 0 to 100 scale, 10 days
Procedure, shortened: as §3

corn (Zea mays) [19] = assay: Test A preemergence, corn; settings: 0 to 100 scale, 10 days
Excerpt: as §1, §2

[20] = tested on: goosegrass (Eleusine indica); assay: Test A postemergence, goosegrass; settings: 10 days
Excerpt: as §1, §2

corn (Zea mays) [21] = assay: Test A postemergence, corn; settings: 10 days
Procedure, shortened: as §3

[22] = tested on: ragweed (common ragweed, Ambrosia artemisiifolia); assay: Test A postemergence, ragweed; settings: 10 days
Procedure, shortened: as §3

[23] = tested on: oat, wild (wild oat, Avena fatua); assay: Test A postemergence, oat, wild; settings: 10 days
Excerpt: as §1, §2

[24] = tested on: palmer amaranth (pigweed, palmer, Amaranthus palmeri); assay: Test A postemergence, palmer amaranth; settings: 10 days
Excerpt: as §1, §2

[25] = tested on: wheat (Triticum aestivum); assay: Test A postemergence, wheat; settings: 10 days
Procedure, shortened: as §3

soybean (Glycine max) [26] = assay: Test A preemergence, soybean; settings: 0 to 100 scale, 10 days
Excerpt: as §1, §2

[27] = tested on: palmer amaranth (pigweed, palmer, Amaranthus palmeri); assay: Test A preemergence, palmer amaranth; settings: 0 to 100 scale, 10 days
Excerpt: as §1, §2

[28] = 31 g ai/ha, postemergence, 0 to 100 scale (0 no effect, 100 complete control)
[29] = Postemergence, 125 g ai/ha, 0 to 100 scale

## Cc1ccc2cc3ccc(F)cc3c(-c3c(OCOC(=O)OC(C)C)c(C)nn(C)c3=O)c2c1 [Compound 17]
[1]
  Plant response rating, Wheat: 0
[2]; 31 g ai/ha
  Plant response rating, Goosegrass: 50
[2]; 125 g ai/ha
  Plant response rating, Goosegrass: 60
[3]; 31 g ai/ha
  Plant response rating, Ryegrass, Italian: 30
[3]; 125 g ai/ha
  Plant response rating, Ryegrass, Italian: 80
Kochia (Bassia scoparia) [4]; [28]
  Plant response rating, Kochia: 100
Kochia (Bassia scoparia) [4]; [29]
  Plant response rating, Kochia: 100
[5]; [28]
  Plant response rating, Galium: 100
[5]; [29]
  Plant response rating, Galium: 100
Soybean (Glycine max) [6]; [28]
  Plant response rating, Soybean: 60
Soybean (Glycine max) [6]; [29]
  Plant response rating, Soybean: 80
[7]; [28]
  Plant response rating, Blackgrass: 0
[7]; [29]
  Plant response rating, Blackgrass: 10
[8]; 31 g ai/ha
  Plant response rating, Ragweed: 100
[8]; 125 g ai/ha
  Plant response rating, Ragweed: 100
Rice (Oryza sativa)
  Plant response rating, Rice (0 to 100 scale where 0 is no effect and 100 is complete control): 45
Kochia (Bassia scoparia) [9]; 31 g ai/ha
  Plant response rating, Kochia: 90
Kochia (Bassia scoparia) [9]; 125 g ai/ha
  Plant response rating, Kochia: 90
[10]; 31 g ai/ha
  Plant response rating, Oat, Wild: 0
[10]; 125 g ai/ha
  Plant response rating, Oat, Wild: 0
[11]
  Plant response rating, Sedge, Umbrella (0 to 100 scale where 0 is no effect and 100 is complete control): 85
[12]; 31 g ai/ha
  Plant response rating, Blackgrass: 0
[12]; 125 g ai/ha
  Plant response rating, Blackgrass: 20
[13]; [28]
  Plant response rating, Horseweed: 100
[13]; [29]
  Plant response rating, Horseweed: 100
[14]
  Plant response rating, Barnyardgrass (0 to 100 scale where 0 is no effect and 100 is complete control): 70
[15]; [28]
  Plant response rating, Foxtail, Giant: 100
[15]; [29]
  Plant response rating, Foxtail, Giant: 100
[16]; [28]
  Plant response rating, Ryegrass, Italian: 70
[16]; [29]
  Plant response rating, Ryegrass, Italian: 100
[17]
  Plant response rating, Ducksalad (0 to 100 scale where 0 is no effect and 100 is complete control): 85
[18]; 31 g ai/ha
  Plant response rating, Foxtail, Giant: 100
[18]; 125 g ai/ha
  Plant response rating, Foxtail, Giant: 100
Corn (Zea mays) [19]; 31 g ai/ha
  Plant response rating, Corn: 0
Corn (Zea mays) [19]; 125 g ai/ha
  Plant response rating, Corn: 30
[20]; [28]
  Plant response rating, Goosegrass: 30
[20]; [29]
  Plant response rating, Goosegrass: 50
Corn (Zea mays) [21]; [28]
  Plant response rating, Corn: 0
Corn (Zea mays) [21]; [29]
  Plant response rating, Corn: 30
[22]; [28]
  Plant response rating, Ragweed: 100
[22]; [29]
  Plant response rating, Ragweed: 100
[23]; [28]
  Plant response rating, Oat, Wild: 10
[23]; [29]
  Plant response rating, Oat, Wild: 30
[24]; [28]
  Plant response rating, Pigweed, Palmer: 90
[24]; [29]
  Plant response rating, Pigweed, Palmer: 100
[25]; [28]
  Plant response rating, Wheat: 0
[25]; [29]
  Plant response rating, Wheat: 0
Soybean (Glycine max) [26]; 31 g ai/ha
  Plant response rating, Soybean: 0
Soybean (Glycine max) [26]; 125 g ai/ha
  Plant response rating, Soybean: 0
[27]; 31 g ai/ha
  Plant response rating, Pigweed, Palmer: 100
[27]; 125 g ai/ha
  Plant response rating, Pigweed, Palmer: 100
